Laboratory results as given in patent publication US6797285B1, “Leaves of Cajanus Cajan(L.) Millsp and extract, formulation and uses thereof” (priority 1999, dated 2004).
Marks after values point to notes of the source that are not given here.

Assays:
[1] = tested on: mouse pinnal inflammation caused by dimethylbenzene; experiment: mouse pinnal inflammation induced by dimethylbenzene; type: in vivo, NIH mice; conditions: 0.013 g/kg/day, gavage 7 days
Protocol: Divided the mice into 5 groups randomly with 8 mice each, i.e. control group, indometacin-treated group and three Shengmaichenggu capsule-treated groups (dosages are shown in table 12). The mice were administered medicaments in different concentration by gavage. […] Killed the mice after […] by decollation. Cut out the equal area at the same position from both ears of the mouse with perforator, and weighted with torsion balance. The swell degree is defined as the weight difference of subtracting the weight of the right ear from that of the left. Analyzed the data of swell degree of the control group and the treated groups statistically.

[2] = tested on: mouse pain induced by acetic acid; experiment: writhing response on mouse (acetic acid); type: in vivo, NIH mice; conditions: 0.013 g/kg/day, gavage 7 days
Protocol: Divided the mice into 5 groups randomly, i.e. control group (0.2 ml/10 g distilled water), indometacin-treated group (0.013 g/kg) and three Shengmaichenggu capsule-treated groups (dosages are shown in table 10). The mice were administered by gavage for 7 days. […] Recorded the first time when the writhing response appeared caused by pain for each mouse, the number of the writhing response appeared in 10 minute and the analgesic percent.

[3] = tested on: threshold of pain; experiment: hot-plate test on mouse; type: in vivo, NIH female mice
Protocol: Adjusted the temperature of water bath box to 55° C.±1° C. I.C. Immersed one big beaker in the water bath and put mice into the beaker. Recorded the period from the time when animals were put into the beaker to that when animals licked feet due to pain, and defined the period as the threshold of pain of that mouse.
Screened out the mice whose threshold of pain were in the range of 5-30 seconds, and divided them randomly into 5 groups including control group, indometacin-treated group and three Shengmaichenggu capsule-treated groups (The dosage are shown in table 11). Administered medicaments to animals by gavage for continuous 7 days. Determined the threshold of pain at the time of 30 minutes and 60 minutes after the administration at day 7 respectively, and observed the changes in the threshold of pain after administration. Room temperature should be controlled in the range of 15-20° C.

[4] = tested on: serum hemolysin; experiment: hemolysin content of mouse immunised by chicken blood cells; type: in vivo, NIH mice; conditions: 0.04 g/kg/day
Protocol: The grouping and administering scheme was the same as that of the above-mentioned Experiment of nonspecific immunological functions. At the first day of administration, injected 5% suspension of chicken red blood cells to abdominal cavity of mice at a dosage of 0.2 ml/one mouse. Seven days after immunization, took blood from eyeball and centrifuged. The serum was diluted 100 times with physiological saline. 1 ml of the diluted serum was mixed with 0.5 ml of 5% suspension of chicken red blood cells and 0.5 ml of 10% complement. After incubation in an incubator at 37° C. for 30 minutes, the reaction was terminated by putting the mixture into a 0° C. refrigerator.
The formulated test solution was centrifuged. Took the supernatant and detected optical density (OD) by colorimetric analysis in 722-grating photometer (λ=620). Set up a control group free of serum and took the supernatant of the centrifuged test solution of this group as the “0” basis for colorimetric assay. Took “OD” as the index for quantifying the serum hemolysin and analysed the data statistically.

[5] = tested on: mice lymphocyte; experiment: cellular immunity test: transformation reaction of mice lymphocyte (PHA); type: in vivo, NIH mice; conditions: 0.04 g/kg/day
Protocol: The mice were divided into 6 groups randomly, i.e. control group, model group levamisole-treated group, and three Shengmaichenggu capsule-treated groups at different dosages (dosages are shown in table 17). Administered by gavage once a day for continuous 7 days. After the last administration, all the animals were immunized by injecting 5% suspension of chicken red blood cells to abdominal cavity at a dosage of 0.2 ml/one mouse. Then the animals were injected PHA to abdominal cavity at a dosage of 0.025 ml/10 g for continuous 3 days. All groups except control group were administered prednisone acetate at a dosage of […] body weight by gavage for continuous 7 days. At the time of 12 hours after last administration, the experiment was carried out according to the Experiment of the content of mouse hemolysin mentioned above in which chicken blood cells were used as immunogen.

[6] = tested on: immune organs (thymus, spleen); experiment: immune organ coefficient of mouse, prednisone acetate immunosuppression; type: in vivo, NIH mice; conditions: Dosage/kg/day 0.04
Protocol: (§1) The mice were divided into 6 groups randomly, i.e. control group, modeled group, levamisole-treated group, and three Shengmaichenggu capsule-treated groups (dosages are shown in table 14). […] Administered distilled water to the control group by gavage in the same period. At the time of 30 minutes after administering on the day 20, injected […] into tail vein at a dosage of 0.01 ml/l10 g. At the 2th and 12th minute after injection, took 10 μl orbit blood and put into 3 ml 0.1% Na2CO3 solution and shook up. Detected optical density (OD) by colorimetric analysis in 722-grating photometer (λ=620). […] The animals were killed by dislocating cervical vertebra. The liver and spleen were weighted respectively. Determined the weight of immune organs of every mouse according to the immune organ weighting method. Calculated the immune organ index and made a statistical analysis for the result.

[7] = tested on: monocytophagous function; experiment: monocytophagous function of mouse (china ink clearance), prednisone acetate immunosuppression; type: in vivo, NIH mice; conditions: 0.04 g/kg/day, gavage 20 days
Protocol: as §1

[8] = tested on: acute blood stasis model; experiment: hermorheology index of rat acute blood stasis model; type: in vivo, SD rats; conditions: 90 mg/kg/day, gavage 20 days
Protocol: The rats were divided into 6 groups randomly, i.e. normal control group, blood stasis model group, Tetramethylpyrazine phosphate-treated group and three Shengmaichegngu capsule-treated groups (the dosage were shown in table 9). The control group and the blood stasis model group were administered equal volume of distilled water by gavage. Every treated groups were administered liquor drug with different concentrations at a dosage of 2 ml/100 g weight/day, once daily at a fixed time for 20 days. When 24 hours after the last administration, animals except the normal control group were injected epinephrine hydrochloride hypodermically for two times (0.8 mg/kg) with an interval of 3 hours. The rats were immersed in water at 4±1° C. for 5 minutes at the time of 1.5 hour after the first injection of epinephrine hydrochloride, then the animals fast. In the next morning, eyeball blood was taken from anesthetized animals (injected pentobarbital sodium to abdominal cavity at a dosage of 30 mg/kg ). Hermorheology indexes were determined which include specific viscosity of whole blood, specific viscosity of plasma, erythrocyte sedimentation and hematokrit.

[9] = tested on: tampon-induced granuloma; experiment: granuloma induced by tampon on rat; type: in vivo, SD rats; conditions: 25 mg/kg/day, gavage
Protocol: The rats were divided into 5 groups randomly with 12 rats each group, i.e. control group, prednisone acetate-treated group and three Shengmaichenggu capsule-treated groups. An incision was made aseptically along the dorsimeson of a rat anesthetized by pentobarbital sodium and a sterilized tampon was imbedded into the incision and sewed up. The treated groups were administered by gavage 3 days before surgery until the day 7 after surgery. At the 8th day after surgery, the rats were killed by decollation. Avulsed out the tampon-caused granuloma tissue and dried it at 60-90° C. in a oven for 1 hour. Then weighted and subtracted the initial weight of tampon to get the net weight of granuloma tissue. Compared the granuloma weight among these groups and analyzed the results statistically.

## COc1ccc2c(c1)c(CC(=O)O)c(C)n2C(=O)c1ccc(Cl)cc1 [Indometacin, indometacin]
[1]
  Swell degree: 0.5500 ± 0.258 mg
[2]
  Analgesic percent: 75## %
  Number of writhing mice: 2##
  The First time when the writhing response appeared: 572.75 ± 182.13 s
[3]; 0.013 g/kg/day, day 7, 30 min
  Threshold of pain at different time after administration, 30 min: 28.07 ± 6.67 S
[3]; 0.013 g/kg/day, day 7, 60 min
  Threshold of pain at different time after administration, 60 min: 24.64 ± 6.49 S
[3]; baseline, group 0.013 g/kg/day
  Threshold of pain before administration: 18.93 ± 5.41 S

## c1ccc([C@H]2CN3CCSC3=N2)cc1 [Levamisole, levamisole]
[4]
  OD (Optical density), hemolysin content: 0.7370 ± 0.1444
[5]
  Transformation rate of lymphocyte: 0.7370 ± 0.03234 %
  limphoblast: 0.4310 ± 0.05043 %
  transition state cells: 0.3050 ± 0.0495 %
[6]
  Immune organ coefficient, Spleen: 52.82 ± 0.887 mg/kg
  Immune organ coefficient, Thymus: 1.501 ± 0.334 mg/kg
[7]
  Phagocytic activity α: 5.1964 ± 0.7761
  Phagocytic count K: 0.0273 ± 0.00852

## Cc1nc(C)c(C)nc1C.O=P(O)(O)O [Tetramethylpyrazine phosphate]
[8]
  Erythrocyte sedimentation: 1.80 ± 0.27
  Hematokrit: 43.55 ± 2.39
  Specific viscosity of plasma: 1.95 ± 0.08
  Specific viscosity of whole blood, High shearviscosity coefficient: 5.59 ± 0.40
  Specific viscosity of whole blood, Lower shearviscosity coefficient: 20.87 ± 2.63

## CC(=O)OCC(=O)[C@@]1(O)CC[C@H]2[C@@H]3CCC4=CC(=O)C=C[C@]4(C)[C@H]3C(=O)C[C@@]21C [Prednisone acetate, prednisone acetate]
[9]
  Net weight of granuloma: 33.45 ± 13.10 mg
